Test results: patent US4663323A, “Tetrazole derivatives, anti-ulcer composition containing the same and method for treating ulcers” (Otsuka Pharmaceutical Co., Ltd., priority 1984, dated 1987)
Like-named read-outs stand apart in the source and are kept apart here.

How the values were obtained:
[1] = tested on: Stress Ulcer; assay: Stress Ulcer; format: in vivo, male Wistar rats; conditions: oral, 1×10^-3 mole in 0.5% CMC, before restraint and water dipping at 23° C. for 7 hours
Procedure: After male Wistar rats weighing about 170 g was fasted for 24 hours, the rats were restrained in a stress cage and dipped in water bath at 23° C. till chest of the animals. After 7 hours, the rats were killed and the stomach was isolated. Into the isolated stomach 10% formalin (8 ml) was poured and settled. The stomach was cut open at the greater curvature, and the length of each ulcer on the membrane was measured. Sum of the length of all ulcers was shown as ulcer index (UI). The test compound was orally administered to the rats before restraint in a stress cage in the form of 0.5% CMC suspension in a concentration of 1×10^-3 mole. As a control, only the solvent (CMC solution) was administered likewise.
The inhibitory ratio (%) of stress ulcer of the test compounds was calculated by the following equation: [formula]
(§1) In the table, the inhibitory ratio (%) was evaluated as follows: […]

[2] = tested on: gastric juice secretion; assay: Shay rat pylorus ligation method (gastric juice secretion-inhibiting activity); format: in vivo, male Wistar rats; conditions: sc, 4 h, 100 mg/kg s.c., 30 min before pylorus ligation, measured 4 hours after ligation
Procedure: The pharmacological activities of the compouns (I) were tested by a Shay rat pylorus ligation method (cf. H. Shay et al: Gastroenterol., Vol. 5, page 43, 1945) which is the most popular method for testing of gastric juice secretion-inhibiting activity. The test was carried out by using male Wistar rats, weighing about 170 g and fasting for 24 hours.
Test compounds were administered 30 minutes before the pylorus ligation in a dose of 100 mg/kg in subcutaneous route, and the volume, total acidity and/or pepsin activity of the gastric juice were measured 4 hours after the ligation. As a control, a saline solution was administered instead of the test compound. The inhibitory ratio (%) of the test compounds were calculated when the inhibitory activities of the control were counted as zero (0).
as §1

[3] = Acute Toxicity; conditions: rat, in vivo, po, male Wistar rats
Procedure: The test compounds were orally administered to male Wistar rats, and the half lethal dose (LD50) was measured.

[4] = tested on: Acetic Acid-Induced Ulcer; assay: Acetic Acid-Induced Ulcer; format: in vivo, Male Wistar rats; conditions: oral, twice a day for 12 days
Procedure: Male Wistar rats were used. Under anestherization, the abdomen of rats were opened to expose stomach, and then 30% aqueous acetic acid (0.015 ml) was injected below serous membrane which was located at boundary area of true gastric gland and pyloric glands and thereafter the abdomen was closed, by which an experimental ulcer was induced.
The test compound was orally administered in the dose as shown in Table 3 in the form of 0.5% CMC suspension or solution twice a day for 12 days after the acetic acid-induced ulcer was produced. As a control, only the solvent (CMC solution) was administered likewise.
After the reproduced mucous membrane was removed around the ulcers, the open area of ulcers was measured with a micrometer, and the sum of ulcer area was shown as ulcer index (UI). The inhibitory ratio (%) of acetic acid-induced ulcer of the test compounds was calculated in the same manner as in Pharmacological Test 2.
as §1

[5] = tested on: Indomethacin-Induced Ulcer; assay: Indomethacin-Induced Ulcer; format: in vivo, male Wistar rats; conditions: oral, 3×10^-4 mole in 0.5% CMC, 30 min before indomethacin 20 mg/kg s.c.
Procedure: After male Wistar rats weighing about 160 g was fasted for 24 hours, indomethacin was subcutaneously administered to the rats in a dose of 20 mg/kg in the form of a suspension in a mixture of 0.5% CMC and a small amount of Tween 80 (i.e. polyoxyethylene sorbitan monooleate). After 5 hours, the rats were killed and the stomach was isolated. Into the isolated stomach 10% formalin (8 ml) was poured and settled. The stomach was cut open at the greater curvature, and the length of each ulcer on the membrane was measured, based on which results the inhibitory ratio of the indomethacin-induced ulcer of the test compounds was calculated in the same manner as in Pharmacological Test 2. The test compound was orally administered to the rats in a concentration of 3×10^-4 mole in the form of 0.5% CMC suspension 30 minutes before the administration of indomethacin.
as §1

[6] = saline control = 0, read-out: Inhibitory ratio, Pepsin activity
[7] = saline control = 0, read-out: Inhibitory ratio, Total acidity
[8] = saline control = 0, read-out: Inhibitory ratio, Volume of gastric juice

| Molecule | Inhibitory ratio of stress ulcer [1] | inhibition in vivo at 100 mg/kg [2, 6] [%] | inhibition in vivo at 100 mg/kg [2, 7] [%] | inhibition in vivo at 100 mg/kg [2, 8] [%] | LD50 [3] [mg/kg] | Inhibitory ratio of acetic acid-induced ulcer ([4]; 20 mg/kg.day) | Inhibitory ratio of acetic acid-induced ulcer ([4]; 3 × 10^-5 mole/kg.day) | Inhibitory ratio of indomethacin-induced ulcer [5] |
| --- | --- | --- | --- | --- | --- | --- | --- | --- |
| CCN(CC)C(=O)CCCSc1nnnn1C [Compound 1, N,N-Diethyl-4-(1-methyl-1,2,3,4-tetrazol-5-yl)thio-butyramide] | ++ (more than 60%) | > 50 | > 50 | > 50 | > 500 |  |  |  |
| CCN(C(=O)CCCSc1nnnn1C)C1CCCCC1 [Compound 2, N-Ethyl-N-cyclohexyl-4-(1-methyl-1,2,3,4-tetrazol-5-yl)thio-butyramide] |  | > 50 | > 50 | > 50 | > 500 | + (30 to less than 60%) |  |  |
| CCN(C(=O)CCCCc1nnnn1-c1ccccc1)C1CCCCC1 [Compound 4, N-Ethyl-N-cyclohexyl-5-(1-phenyl-1,2,3,4-tetrazol-5-yl)valeramide] | ++ (more than 60%) | 10 to 50 | 10 to 50 | 10 to 50 | > 500 |  |  |  |
| CN(C)c1ccc(NC(=O)CCCSc2nnnn2C)cc1 [Compound 7, N-[4-(N,N-dimethylamino)phenyl]-4-(1-methyl-1,2,3,4-tetrazol-5-yl)thio-butyramide] | ++ (more than 60%) | 10 to 50 | 10 to 50 | > 50 | > 500 |  |  |  |
| CCN(C(=O)CCCSc1nnnn1C)c1ccccc1 [Compound 9, N-Ethyl-N-phenyl-4-(1-methyl-1,2,3,4-tetrazol-5-yl)thio-butyramide] |  |  |  |  | > 500 | + (30 to less than 60%) |  |  |
| CCN(C(=O)CCCSc1nnnn1C)c1ccccn1 [Compound 10, N-Ethyl-N-(2-pyridyl)-4-(1-methyl-1,2,3,4-tetrazol-5-yl)thio-butyramide] |  |  | 10 to 50 |  | > 500 |  |  |  |
| COc1ccc(CCN(C(=O)CCCSc2nnnn2C)C2CCCCC2)cc1OC [Compound 11, N-Cyclohexyl-N-[2-(3,4,-dimethoxyphenyl)-ethyl]-4-(1-methyl-1,2,3,4-tetrazol-5-yl)thio-butyramide] |  | 10 to 50 | 10 to 50 | 10 to 50 | > 500 |  |  |  |
| CCc1ccc(-n2nnnc2CSCCC(=O)N(CC)CC)cc1 [Compound 12, N,N-Diethyl-3-[1-(4-ethylphenyl)-1,2,3,4-tetrazol-5-yl]methylthio-propionamide] |  | 10 to 50 | 10 to 50 | 10 to 50 | > 500 |  |  |  |
| Cn1nnnc1SCCCC(=O)NCc1ccco1 [Compound 13, N-Furfuryl-4-(1-methyl-1,2,3,4-tetrazol-5-yl)thio-butyramide] |  | 10 to 50 | 10 to 50 | 10 to 50 | > 500 |  |  |  |
| CCNC(=O)CCSCc1nnnn1-c1ccccc1 [Compound 16, N-Ethyl-3-(1-phenyl-1,2,3,4-tetrazol-5-yl)-methylthio-propionamide] | + (30 to less than 60%) |  |  |  | > 500 |  |  |  |
| CCNC(=O)CCCSCc1nnnn1CC [Compound 17, N-Ethyl-4-(1-ethyl-1,2,3,4-tetrazol-5-yl)-methylthio-butyramide] | + (30 to less than 60%) |  |  |  | > 500 |  |  |  |
| CCn1nnnc1CSCCC(N)=O [Compound 19, 3-(1-Ethyl-1,2,3,4-tetrazol-5-yl)methylthio-propionamide] |  |  |  |  | > 500 |  | + (30 to less than 60%) |  |
| COc1ccc(CCNC(=O)CCCSc2nnnn2C)cc1OC [Compound 26, N-[2-(3,4-Dimethoxyphenyl)ethyl]-4-(1-methyl-1,2,3,4-tetrazol-5-yl)thio-butyramide] |  | < 10 | 10 to 50 | > 50 |  | + (30 to less than 60%) |  |  |
| CN(C)C(=O)CCCSc1nnnn1C [Compound 28, N,N-Dimethyl-4-(1-methyl-1,2,3,4-tetrazol-5-yl)thio-butyramide] |  | 10 to 50 | > 50 | > 50 |  | + (30 to less than 60%) |  |  |
| COC(=O)CCCSc1nnnn1C [Compound 37, Methyl 4-(1-methyl-1,2,3,4-tetrazol-5-yl)-thio-butyrate] |  |  |  | 10 to 50 |  | + (30 to less than 60%) |  |  |
| CN(Cc1cccs1)C(=O)CCCSc1nnnn1C [Compound 39, N-Methyl-N-(2-thienylmethyl)-4-(1-methyl-1,2,3,4-tetrazol-5-yl)thio-butyramide] |  |  |  | > 50 |  |  |  | + (30 to less than 60%) |
| COC1CCC(NC(=O)CCCSc2nnnn2C)CC1 (centres unmarked) [Compound 45, N-(4-Methoxycyclohexyl)-4-(1-methyl-1,2,3,4-tetrazol-5-yl)thio-butyramide] |  |  |  | 10 to 50 |  |  |  | ++ (more than 60%) |
| CCN(C(=O)CCCc1nnnn1-c1ccccc1)C1CCCCC1 [Compound 46, N-Ethyl-N-cyclohexyl-4-(1-phenyl-1,2,3,4-tetrazol-5-yl)butyramide] | ++ (more than 60%) | < 10 | 10 to 50 | 10 to 50 |  |  |  | ++ (more than 60%) |
| CCCCNC(=O)CCCCc1nnnn1-c1ccccc1 [Compound 47, N-(n-Butyl)-5-(1-phenyl-1,2,3,4-tetrazol-5-yl)valeramide] | + (30 to less than 60%) |  |  |  |  |  |  | + (30 to less than 60%) |
| COc1ccc(NC(=O)CCCCc2nnnn2-c2ccccc2)cc1 [Compound 49, N-(4-Methoxyphenyl)-5-(1-phenyl-1,2,3,4-tetrazol-5-yl)valeramide] | + (30 to less than 60%) |  |  |  |  |  |  | + (30 to less than 60%) |
| CCCCN(C(=O)CCCSc1nnnn1C)C1CCCCC1 [Compound 55, N-Cyclohexyl-N-butyl-5-(1-methyl-1,2,3,4-tetrazol-5-yl)thio-butyramide] |  |  |  |  |  | + (30 to less than 60%) |  |  |
| N,N-Dicyclohexyl-5-(1-methyl-1,2,3,4-tetrazol-5-yl)thio-butyramide [Compound 58] |  |  |  |  |  | + (30 to less than 60%) |  |  |
| N-Ethyl-N-cyclooctyl-5-(1-methyl-1,2,3,4-tetrazol-5-yl)thio-butyramide [Compound 56] |  |  |  |  |  | + (30 to less than 60%) |  |  |
